The text below walks through data of patent US20260209249A1, “NOVEL TRICYCLIC COMPOUND AS KRAS G12D INHIBITOR, AND USE THEREOF” (SK Biopharmaceuticals Co., priority 2022, published 2026).

Experiment [1] has as its target T1, GDP-KRAS G12D mutant protein (Homo sapiens, UniProt P01116, G12D).
T1 construct: purchased Daegu Gyeongbuk Medical Innovation Foundation (DGMIF), made to order
Put plainly: Differential scanning fluorimetry (DSF) binding affinity to GDP-KRAS G12D mutant protein. The note with it: DSF thermal shift, 10 μM compound, 4 μg KRAS protein. The procedure, abridged: (§1)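 Thermal shift ΔTm was measured at 10 μM compound over a 25–99 °C ramp (0.05 °C/s), read at 580 nm ex/623 nm em with SYPRO Orange (2×). The protein (4 μg) was preincubated with compound for 30 min at room temperature, in 50 mM HEPES pH 7.5 for GppNHp-KRAS G12D or in kit buffer for GDP-KRAS G12D.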
(In general: In DSF a fluorescence change marks the thermal transition of the protein.)

In experiment [2] the target is T2, GppNHp-KRAS G12D mutant protein (Homo sapiens, UniProt P01116, G12D).
T2 construct: purchased Daegu Gyeongbuk Medical Innovation Foundation (DGMIF), made to order
In words: Differential scanning fluorimetry (DSF) binding affinity to GppNHp-KRAS G12D mutant protein. Particulars: DSF thermal shift, 10 μM compound, 4 μg KRAS protein, 50 mM HEPES (pH 7.5). Summed up: as §1

The test system of experiment [3] is ERK phosphorylation (pERK) induced by KRAS G12D mutation. Put plainly: Inhibitory activity against ERK phosphorylation (pERK) induced by KRAS G12D mutation, immunofluorescence assay in AsPC-1 cells. In kind it is cell-based. The note with it: Homo sapiens, ASPC1, 3 h drug treatment, pERK (Thr202/Tyr204) signal normalized to DAPI. Summed up:
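AsPC-1 cells attached 16 h, then treated 3 h with 3-fold dilutions from 10 μM top. Fixed, permeabilized, immunostained for pERK (Thr202/Tyr204) with Alexa 488 secondary; high-content imaging, signal normalized to DAPI and to DMSO, IC50 from four-parameter fit.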

Experiment [4] concerns KRAS G12D mutant pancreatic cancer cell line AsPC-1. Put plainly: Cell viability assay using KRAS G12D mutant cells (AsPC-1, 3D culture, celltiter-glo 3D). Particulars: Homo sapiens, ASPC1, 5th day after compound treatment. In kind it is cell-based. On the procedure: Test Example 3: Cell Viability Assay Using KRAS G12D Mutant Cells
The KRAS G12D mutant pancreatic cancer cell line AsPC-1 was obtained from the Korean Cell Line Bank (KCLB) and maintained in 100-mm dishes or T75 (75 cm^2) flasks using RPM11640+10% fetal bovine serum (FBS)+1% Penicillin-Streptomycin medium. The cells were cultured at 37° C. with 5% CO2. The number of viable cells was counted using Countess (Invitrogen).
When AsPC-1 cells reached 85-100% confluence in the flask, the cells were harvested using 1× trypsin/EDTA solution, and seeded into a 96-well plate for 3D culture at 1000 cells/100 μL/well. The next day, the compounds were diluted ⅕ with DMSO from 10 μM or 50 μM to 0.0001 μM or 0.0006 μM and treated 1:1 (v/v) in the plate where the cells were seeded.
Cell culture was terminated on the 5th day after compound treatment, and cell viability at each concentration was measured using the celltiter-glo 3D cell viability assay kit.
Cell viability assays were normalized to 100% for the DMSO-treated group and expressed as a percentage of the number of viable cells when treated with the compound.
Cell viability %=(average RLU of group treated with test substance−average RLU of untreated group)/(average RLU of group treated with DMSO−average RLU of untreated group)×100
The data were modeled using GraphPad Prism 9 (GraphPad Software) by applying a nonlinear regression curve fit with a four-parameter sigmoidal dose-response curve to determine cell viability as a function of compound concentration. The 50% inhibitory concentration (IC50) corresponds to the concentration at which the curve intersects the midpoint of cell viability. The results of the inhibitory effect of the compounds according to one embodiment of the present application on the viability of KRAS G12D mutant cells are presented in Table 4.
For orientation: Cellular ATP, detected with luciferase, serves as a proxy for viable cell number.

Broadly, the IC50 is the concentration that inhibits the measured activity by half. High values mean a need for much substance, low ones inhibition by little substance. Regarding `C#Cc1c(F)ccc2cc(O)cc(-c3cc4nc(OCC5(CN6C[C@@H]7C[C@H]6CO7)CC5)nc(N5C[C@H]6CC[C@@H](C5)N6)c4n4ccnc34)c12` [Example 12, 4-(3-((1-(((1S,4S)-2-oxa-5-azabicyclo[2.2.1]heptan-5-yl)methyl)cyclopropyl)methoxy)-1-((1 R,5S)-3,8-diazabicyclo[3.2.1]octan-3-yl)imidazo[1′,2′:1,6]pyrido[3,2-d]pyrimidin-6-yl)-5-ethynyl-6-fluoronaphthalen-2-ol], the “GDP-KRAS G12D (ΔTmD, ° C.)” value in experiment [1] is 9.61 °C. Further, in experiment [2], the “GppNHp-KRAS G12D (ΔTmD, ° C.)” value worked out at 2.65 °C. Also, the half-maximal inhibitory concentration (IC50) in experiment [3] turned out to be 1.06 µM; in experiment [4] it was 0.975 µM.

Take `C#Cc1c(F)ccc2cc(N)cc(-c3cc4nc(OC[C@@]56CCCN5C[C@H](F)C6)nc(N5[C@@H]6CC[C@H]5CNC6)c4n4ccnc34)c12` [Example 14, 4-(1-((1R,5S)-3,8-diazabicyclo[3.2.1]octan-8-yl)-3-(((2R,7aS)-2-fluorotetrahydro-1H-pyrrolizin-7a(5H)-yl)methoxy)imidazo[1′,2′:1,6]pyrido[3,2-d]pyrimidin-6-yl)-5-ethynyl-6-fluoronaphthalen-2-amine]: in experiment [1], the “GDP-KRAS G12D (ΔTmD, ° C.)” value was 7.98 °C. In experiment [2], the “GppNHp-KRAS G12D (ΔTmD, ° C.)” value was determined as 4.73 °C. Also, the IC50 in experiment [3] turned out to be 0.075 µM; in experiment [4], 0.053 µM.

In the case of `C#Cc1c(F)ccc2cc(O)cc(-c3cc4nc(OCC5(CN6CC[C@@H](F)C6)CC5)nc(N5[C@@H]6CC[C@H]5CNC6)c4n4ccnc34)c12` [Example 16, 4-(1-((1R,5S)-3,8-diazabicyclo[3.2.1]octan-8-yl)-3-((1-(((R)-3-fluoropyrrolidin-1-yl)methyl)cyclopropyl)methoxy)imidazo[1′,2′:1,6]pyrido[3,2-d]pyrimidin-6-yl)-5-ethynyl-6-fluoronaphthalen-2-ol], the “GDP-KRAS G12D (ΔTmD, ° C.)” value in experiment [1] amounted to 9.01 °C. Moreover, the “GppNHp-KRAS G12D (ΔTmD, ° C.)” value in experiment [2] was determined as 4.27 °C. Moreover, the IC50 in experiment [3] was determined as 0.176 µM; in experiment [4] it was 0.094 µM.

As for `C#Cc1c(F)ccc2cc(O)cc(-c3cc4nc(OC[C@@]56CCCN5C/C(=C\F)C6)nc(N5[C@@H]6CC[C@H]5CNC6)c4n4ccnc34)c12` [Example 23, 4-(1-((1R,5S)-3,8-diazabicyclo[3.2.1]octan-8-yl)-3-(((S,Z)-2-(fluoromethylene)tetrahydro-1H-pyrrolizin-7a(5H)-yl)methoxy)imidazo[1′,2′:1,6]pyrido[3,2-d]pyrimidin-6-yl)-5-ethynyl-6-fluoronaphthalen-2-ol], in experiment [1], the “GDP-KRAS G12D (ΔTmD, ° C.)” value came out at 9.90 °C. For the same compound, in experiment [2], the “GppNHp-KRAS G12D (ΔTmD, ° C.)” value was 6.94 °C. Besides, the IC50 worked out at 0.025 µM in experiment [3] and 0.024 µM in experiment [4].

On to `C#Cc1c(F)ccc2cc(O)cc(-c3cc4nc(OC[C@@]56CCCN5C/C(=C\F)C6)nc(N5C[C@H]6CC[C@@H](C5)N6)c4n4ccnc34)c12` [Example 29, 4-(1-((1R,5S)-3,8-diazabicyclo[3.2.1]octan-3-yl)-3-(((S,Z)-2-(fluoromethylene)tetrahydro-1H-pyrrolizin-7a(5H)-yl)methoxy)imidazo[1′,2′:1,6]pyrido[3,2-d]pyrimidin-6-yl)-5-ethynyl-6-fluoronaphthalen-2-ol], for which the “GDP-KRAS G12D (ΔTmD, ° C.)” value in experiment [1] is 12.01 °C. Moreover, in experiment [2], the “GppNHp-KRAS G12D (ΔTmD, ° C.)” value was determined as 6.82 °C. For the same compound, the IC50 in experiment [3] was determined as 0.015 µM; in experiment [4] it was 0.019 µM.

For the compound `C#Cc1c(F)ccc2cc(O)cc(-c3cc4nc(OC[C@@]56CCCN5CC(=C(F)F)C6)nc(N5C[C@H]6CC[C@@H](C5)N6)c4n4ccnc34)c12` [Example 37, 4-(1-((1R,5S)-3,8-diazabicyclo[3.2.1]octan-3-yl)-3-(((S)-2-(difluoromethylene)tetrahydro-1H-pyrrolizin-7a(5H)-yl)methoxy)imidazo[1′,2′:1,6]pyrido[3,2-d]pyrimidin-6-yl)-5-ethynyl-6-fluoronaphthalen-2-ol], the “GDP-KRAS G12D (ΔTmD, ° C.)” value in experiment [1] is 11.53 °C. Besides, the “GppNHp-KRAS G12D (ΔTmD, ° C.)” value in experiment [2] stood at 5.76 °C. Moreover, the IC50 in experiment [3] was determined as 0.012 µM; in experiment [4], 0.029 µM.

As for `C#Cc1c(F)ccc2cc(N)cc(-c3cc4nc(OC[C@@]56CCCN5C/C(=C\F)C6)nc(N5[C@@H]6CC[C@H]5CNC6)c4n4ccnc34)c12` [Example 38, 4-(1-((1R,5S)-3,8-diazabicyclo[3.2.1]octan-8-yl)-3-(((S,Z)-2-(fluoromethylene)tetrahydro-1H-pyrrolizin-7a(5H)-yl)methoxy)imidazo[1′,2′:1,6]pyrido[3,2-d]pyrimidin-6-yl)-5-ethynyl-6-fluoronaphthalen-2-amine], the “GDP-KRAS G12D (ΔTmD, ° C.)” value in experiment [1] worked out at 9.61 °C. The “GppNHp-KRAS G12D (ΔTmD, ° C.)” value in experiment [2] stood at 6.65 °C. Besides, the IC50 in experiment [3] was 0.015 µM; in experiment [4], 0.012 µM.

As to `C#Cc1c(F)ccc2cc(O)cc(-c3cc4nc(OC[C@]56CC(=C)CN5C[C@@H](F)C6)nc(N5CC6CCC(C5)N6)c4n4ccnc34)c12` [Example 39, 4-(1-((1R,5S)-3,8-diazabicyclo[3.2.1]octan-8-yl)-3-(((2S,7aR)-2-fluoro-6-methylenetetrahydro-1H-pyrrolizin-7a(51H)-yl)methoxy)imidazo[1′,2′:1,6]pyrido[3,2-d]pyrimidin-6-yl)-5-ethynyl-6-fluoronaphthalen-2-ol], the “GDP-KRAS G12D (ΔTmD, ° C.)” value in experiment [1] was 8.87 °C. Moreover, the “GppNHp-KRAS G12D (ΔTmD, ° C.)” value in experiment [2] amounted to 5.61 °C. Moreover, the IC50 came out at 0.076 µM in experiment [3] and 0.091 µM in experiment [4].

With `Cc1cc2c(o1)c(-c1cc(O)cc3ccccc13)cc1nc(OC[C@@]34CCCN3C[C@H](F)C4)nc(N3C[C@H]4CC[C@@H](C3)N4)c12` [Example 41, 4-(1-((1R,5S)-3,8-diazabicyclo[3.2.1]octan-3-yl)-3-(((2R,7aS)-2-fluorotetrahydro-1H-pyrrolizin-7a(5H)-yl)methoxy)-8-methylfuro[3,2-f]quinazolin-6-yl)naphthalen-2-ol], the “GDP-KRAS G12D (ΔTmD, ° C.)” value in experiment [1] was found to be 5.46 °C. Besides, the “GppNHp-KRAS G12D (ΔTmD, ° C.)” value in experiment [2] was found to be 0.87 °C. In addition, the IC50 in experiment [3] stood at 0.899 µM; in experiment [4] it was 1.02 µM.

As to `C#Cc1c(F)ccc2cc(O)cc(-c3cc4nc(OC[C@@]56CCCN5C[C@H](F)C6)nc(N5C[C@H]6CC[C@@H](C5)N6)c4c4cc(C)oc34)c12` [Example 42, 4-(1-((1R,5S)-3,8-diazabicyclo[3.2.1]octan-3-yl)-3-(((2R,7aS)-2-fluorotetrahydro-1H-pyrrolizin-7a(5H)-yl)methoxy)-8-methylfuro[3,2-f]quinazolin-6-yl)-5-ethynyl-6-fluoronaphthalen-2-ol], the “GDP-KRAS G12D (ΔTmD, ° C.)” value in experiment [1] was found to be 10.96 °C. Further, the “GppNHp-KRAS G12D (ΔTmD, ° C.)” value in experiment [2] was found to be 5.75 °C. The concentration for half-maximal inhibition (IC50) came out at 0.064 µM in experiment [3] and 0.105 µM in experiment [4].

Consider `C#Cc1c(F)ccc2cc(O)cc(-c3c(F)c4nc(OC[C@@]56CCCN5C[C@H](F)C6)nc(N5CC6CCC(C5)N6)c4c4cc(C)oc34)c12` [Example 44, 4-(1-((1R,5S)-3,8-diazabicyclo[3.2.1]octan-3-yl)-5-fluoro-3-(((2R,7aS)-2-fluorotetrahydro-1H-pyrrolizin-7a(5H)-yl)methoxy)-8-methylfuro[3,2-n]quinazolin-6-yl)-5-ethynyl-6-fluoronaphthalen-2-ol], for which the “GDP-KRAS G12D (ΔTmD, ° C.)” value in experiment [1] worked out at 14.33 °C. For the same compound, in experiment [2], the “GppNHp-KRAS G12D (ΔTmD, ° C.)” value was 9.89 °C. Also, the IC50 in experiment [3] was found to be 0.012 µM; in experiment [4] it was 0.007 µM.

On to `C#Cc1c(F)ccc2cc(N)cc(-c3c(F)c4nc(OC[C@@]56CCCN5C[C@H](F)C6)nc(N5C[C@H]6CC[C@@H](C5)N6)c4c4cc(C)oc34)c12` [Example 57, 4-(1-((1R,5S)-3,8-diazabicyclo[3.2.1]octan-3-yl)-5-fluoro-3-(((2R,7aS)-2-fluorotetrahydro-1H-pyrrolizin-7a(5H)-yl)methoxy)-8-methylfuro[3,2-f]quinazolin-6-yl)-5-ethynyl-6-fluoronaphthalen-2-amine], for which, in experiment [1], the “GDP-KRAS G12D (ΔTmD, ° C.)” value came out at 8.57 °C. Besides, the “GppNHp-KRAS G12D (ΔTmD, ° C.)” value in experiment [2] worked out at 5.76 °C. The results for the half-inhibitory concentration (IC50) in experiment [3] and in experiment [4] were 0.167 µM and 0.101 µM, respectively.
